Our source for the k and binding values is publication PMC12448892 (2025).

Assay [1] concerns ADH1 WT (DNA, G4) GGGGCCGGTAGCGAGTGATAGCGAGGGAAAGACGATCGCTATCGGGCCGTAAGGAGGAAATGGGAGGTTGGGGG
Description: ThT fluorescence titration. The following applies: 10 mM KCl; 10 mM Tris pH 7.5, room temperature; 0.5 μM ThT; apparent.

In assay [2] the test system is ADH1 5_G MUT (DNA, G4) GTGGCCGGTAGCGAGTGATAGCGAGTGAAAGACGATCGCTATCGTGCCGTAACGAGGAAATGTGAGGTTGGGGG
As to the kind of experiment: ThT fluorescence titration. The following applies: 10 mM KCl; 10 mM Tris pH 7.5, room temperature; 0.5 μM ThT; apparent.

In assay [3] the test system is ADH1 4_G MUT (DNA, G4) GTGGCCGGTAGCGAGTGATAGCGAGTGAAAGACGATCGCTATCGTGCCGTAAGGAGGAAATGTGAGGTTGGGGG
As to the kind of experiment: ThT fluorescence titration. The following applies: 10 mM KCl; 10 mM Tris pH 7.5, room temperature; 0.5 μM ThT; apparent.

Assay [4] deals with ADH1 WT (DNA, G4) GGGGCCGGTAGCGAGTGATAGCGAGGGAAAGACGATCGCTATCGGGCCGTAAGGAGGAAATGGGAGGTTGGGGG
Description: circular dichroism. The following applies: 100 mM KCl; 10 mM Tris pH 7.5, 25 °C; 5 μM DNA, 10 μM PhenDC3; slight broadening of spectra. A general note: Circular dichroism is the unequal absorption of left and right circularly polarised light.

For assay [5], the system named is ADH1 5_G MUT (DNA, G4) GTGGCCGGTAGCGAGTGATAGCGAGTGAAAGACGATCGCTATCGTGCCGTAACGAGGAAATGTGAGGTTGGGGG
Description: circular dichroism. The following applies: 100 mM KCl; 10 mM Tris pH 7.5, 25 °C; 5 μM DNA, 10 μM PhenDC3; slight broadening of spectra.

The test system of assay [6] is ADH1 4_G MUT (DNA, G4) GTGGCCGGTAGCGAGTGATAGCGAGTGAAAGACGATCGCTATCGTGCCGTAAGGAGGAAATGTGAGGTTGGGGG
Description: circular dichroism. The following applies: 100 mM KCl; 10 mM Tris pH 7.5, 25 °C; 5 μM DNA, 10 μM PhenDC3; slight broadening of spectra.

With `Cc1ccc2c(c1)sc(-c1ccc(N(C)C)cc1)[n+]2C`, the k is 0.65 ± 0.04 µM in assay [1], 0.89 ± 0.13 µM in assay [2] and 0.76 ± 0.06 µM in assay [3].

Take `C[n+]1cc(NC(=O)c2ccc3ccc4ccc(C(=O)Nc5cc6ccccc6[n+](C)c5)nc4c3n2)cc2ccccc21`: the binding entry in assay [4], in assay [5] and in assay [6] was “yes” in each case.
